This note sets out measurements from ChEMBL document CHEMBL1136499, “Tripeptidyl-peptidase II (TPP II) inhibitory activity of (S)-2,3-dihydro-2-(1H-imidazol-2-yl)-1H-indoles, a systematic SAR evaluation. Part 2” (Bioorg Med Chem Lett, 2003).

The structures appear in SMILES notation. Where only a bound is given, the exact number is not on record here.

The assay deals with Tripeptidyl-peptidase 2 (Rattus norvegicus, UniProt Q64560). Nature of the assay: Inhibition of Tripeptidyl-peptidase II purified from a rat liver post-lysosomal fraction.
Sequence of Tripeptidyl-peptidase 2 (Q64560 whole entry): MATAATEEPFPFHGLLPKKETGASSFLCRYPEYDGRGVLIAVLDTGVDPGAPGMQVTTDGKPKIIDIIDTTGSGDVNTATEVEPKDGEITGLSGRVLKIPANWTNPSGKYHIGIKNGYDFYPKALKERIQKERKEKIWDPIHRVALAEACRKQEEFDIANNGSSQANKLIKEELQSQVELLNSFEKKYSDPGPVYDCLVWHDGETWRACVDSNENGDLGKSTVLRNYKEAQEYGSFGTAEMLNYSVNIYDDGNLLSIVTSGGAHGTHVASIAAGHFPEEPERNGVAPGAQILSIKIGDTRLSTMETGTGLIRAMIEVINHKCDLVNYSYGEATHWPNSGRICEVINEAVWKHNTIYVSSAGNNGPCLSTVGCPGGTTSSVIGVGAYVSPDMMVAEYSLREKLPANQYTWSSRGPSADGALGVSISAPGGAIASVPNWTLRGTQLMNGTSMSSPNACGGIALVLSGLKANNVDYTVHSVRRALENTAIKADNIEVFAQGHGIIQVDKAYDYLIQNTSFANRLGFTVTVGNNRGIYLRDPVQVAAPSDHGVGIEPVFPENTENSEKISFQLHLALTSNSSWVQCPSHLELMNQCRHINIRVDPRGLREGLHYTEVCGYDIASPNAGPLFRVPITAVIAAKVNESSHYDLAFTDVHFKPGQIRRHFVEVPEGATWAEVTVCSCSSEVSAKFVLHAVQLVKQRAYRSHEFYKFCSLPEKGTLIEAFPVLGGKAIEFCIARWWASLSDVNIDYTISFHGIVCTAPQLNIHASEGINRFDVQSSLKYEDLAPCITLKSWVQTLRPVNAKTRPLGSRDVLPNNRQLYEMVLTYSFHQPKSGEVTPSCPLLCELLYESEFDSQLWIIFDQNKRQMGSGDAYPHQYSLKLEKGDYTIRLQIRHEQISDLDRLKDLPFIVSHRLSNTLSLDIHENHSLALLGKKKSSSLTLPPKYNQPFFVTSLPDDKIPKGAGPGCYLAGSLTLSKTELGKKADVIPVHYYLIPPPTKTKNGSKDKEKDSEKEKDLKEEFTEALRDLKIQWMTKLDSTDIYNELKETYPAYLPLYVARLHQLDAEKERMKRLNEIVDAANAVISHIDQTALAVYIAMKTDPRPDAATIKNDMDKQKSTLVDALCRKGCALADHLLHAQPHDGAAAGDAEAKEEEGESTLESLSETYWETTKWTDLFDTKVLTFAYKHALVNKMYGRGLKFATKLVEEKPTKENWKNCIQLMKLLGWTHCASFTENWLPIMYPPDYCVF

Turning to `CCCc1cnc([C@@H]2Cc3ccccc3N2C(=O)c2ccccc2[N+](=O)[O-])[nH]1`, the IC50 (as a rule, the midpoint of a concentration-inhibition curve) was above 10000 nM.

In turn, `CCCc1[nH]c([C@@H]2Cc3ccccc3N2C(=O)CN)nc1C(=O)NCC(=O)OC` came in with an IC50 of 135 nM.

`CCCc1nnc([C@@H]2Cc3ccccc3N2C(=O)CN)[nH]1` showed an IC50 above 10000 nM.

`CCCc1cnc([C@@H]2Cc3ccccc3N2C(=O)CCN)[nH]1` gave a half-inhibitory concentration (IC50) above 10000 nM.

`CCc1cnc([C@@H]2Cc3ccccc3N2C(=O)CN)n1C` yielded an IC50 above 10000 nM.

`NCC(=O)N1c2ccccc2C[C@H]1c1nc(-c2ccccc2)c[nH]1` yielded an IC50 above 10000 nM.

`CCCc1cnc([C@@H]2Cc3ccccc3N2C(=O)c2cccc([N+](=O)[O-])c2)[nH]1` returned an IC50 above 10000 nM.

The molecule `CCCc1cnc([C@@H]2Cc3ccccc3N2C(=O)[C@@H](N)Cc2ccccc2)[nH]1` gave an IC50 of 2300 nM.

For `CCCc1cnc([C@@H]2Cc3ccccc3N2C(=O)[C@H]2CCCN2)[nH]1`, the IC50 amounted to 1400 nM.

In turn, `CCCc1c[nH]c([C@@H]2Cc3cc(OC)ccc3N2C(=O)CN)n1` had an IC50 of 70 nM.

On to `CCCc1nc([C@@H]2Cc3ccccc3N2C(=O)CN)[nH]c1C(N)=O`, for which the IC50 was determined as 200 nM.

Molecule `C[C@H](N)C(=O)N1c2ccccc2C[C@H]1c1nc2ccccc2[nH]1` returned a half-maximal inhibitory concentration (IC50) of 1400 nM.

`CCCc1c[nH]c([C@@H]2Cc3cc(Cl)ccc3N2C(=O)CN)n1`: the IC50 is 11 nM.

As for `CCCc1c[nH]c([C@@H]2Cc3ccccc3N2C(=O)[C@H](N)CC)n1`, half-maximal inhibition (IC50) required 4 nM.

The molecule `CCCc1c[nH]c([C@@H]2Cc3cc(OC)ccc3N2C(=O)[C@H](C)N)n1` registered an IC50 of 16 nM.

For the molecule `CCc1c[nH]c([C@@H]2Cc3ccccc3N2C(=O)CN)n1`, half-maximal inhibition (IC50) was put at 194 nM.

As for `CCCCc1cnc([C@@H]2Cc3ccccc3N2C(=O)CN)[nH]1`, it took 50 nM to reach half-maximal inhibition (IC50).

The molecule `CCc1cnc([C@@H]2Cc3ccccc3N2C[C@H](C)N)[nH]1` showed an IC50 above 10000 nM.

For `CCCc1c[nH]c([C@@H]2Cc3ccccc3N2C(=O)[C@@H](N)C(C)C)n1`, the IC50 came out at 20 nM.

On to `CCCc1cnc([C@@H]2Cc3cc(Cl)ccc3N2C(=O)[C@H](C)N)[nH]1`, for which the IC50 came to 5 nM.

With `CCCc1nnc([C@@H]2Cc3ccccc3N2C(=O)CN)o1`, half-maximal inhibition (IC50) was put at 2200 nM.

For the molecule `CCCc1[nH]c([C@@H]2Cc3ccccc3N2C(=O)CN)nc1C`, the IC50 stood at 55 nM.

Consider `CCCc1c[nH]c([C@@H]2Cc3ccccc3N2C(=O)[C@@H](N)CCC)n1`, for which the IC50 was 4 nM.

The molecule `CCCc1[nH]c([C@@H]2Cc3ccccc3N2C(=O)CN)nc1C(=O)OCC` yielded an IC50 of 210 nM.

Consider `CCCc1c[nH]c([C@@H]2CCc3ccccc3N2C(=O)[C@H](C)N)n1` (stereo in doubt; form 1), for which the 50% inhibitory concentration (IC50) was 800 nM.

Molecule `CCCc1c[nH]c([C@@H]2Cc3ccccc3N2C(=O)CN)n1` showed an IC50 of 36 nM.

For the molecule `CCc1cnc([C@@H]2Cc3ccccc3N2C(=O)CN)s1`, the IC50 is 7700 nM.

`CCCc1cnc([C@@H]2Cc3ccccc3N2C(=O)c2ccccc2N)[nH]1` gave an IC50 above 10000 nM.

`CCc1c[nH]c([C@@H]2Cc3ccccc3N2C(=O)[C@H](C)N)n1`: the IC50 worked out at 23 nM.

The molecule `CCCc1c[nH]c([C@@H]2CCc3ccccc3N2C(=O)[C@H](C)N)n1` (stereo in doubt; form 2) gave a concentration for half-maximal inhibition (IC50) of 400 nM.

In turn, `CCCc1c[nH]c([C@@H]2Cc3ccccc3N2C(=O)[C@H](C)NC)n1` yielded a 50% inhibitory concentration (IC50) above 10000 nM.

`CCCc1c[nH]c([C@@H]2Cc3ccccc3N2C(=O)c2cccc(N)c2)n1` gave an IC50 above 10000 nM.

`CCc1cn(C)c([C@@H]2Cc3ccccc3N2C(=O)CN)n1`: the IC50 came to 2100 nM.

As to `CCCc1c[nH]c([C@@H]2Cc3ccccc3N2C(=O)c2c[nH]cn2)n1`, the IC50 is above 10000 nM.

Consider `CCCc1cnc([C@@H]2Cc3cc(F)ccc3N2C(=O)CN)[nH]1`, for which the IC50 worked out at 46 nM.

`CCC(N)C(=O)N1c2ccccc2C[C@H]1c1nc2ccccc2[nH]1` (stereo partly specified): it took 450 nM to reach half-maximal inhibition (IC50).
